{"source": "ChEMBL document CHEMBL5154929", "about": "“Optimization of the Natural Product Calothrixin A to Discover Novel Dual Topoisomerase I and II Inhibitors with Improved Anticancer Activity” (J Med Chem, 2022)", "key": {"Calf thymus DNA": {"tested_on": "Calf thymus DNA", "assay": "Binding affinity to calf thymus DNA assessed as intercalation by measuring hypochromic shift at 292 nm by […]", "type": "nucleic-acid assay", "settings": "Bos taurus"}, "A-375 [1]": {"tested_on": "A-375", "assay": "Induction of apoptosis in human A-375 cells assessed as […] at 20 to 80 nM measured after 24 hrs by Annexin V-FITC and DAPI staining based flow cytometric analysis", "type": "functional", "settings": "dose 20-80 nM"}, "[2]": {"assay": "In vivo acute toxicity in Balb/C mouse assessed as pathological damage in heart at 50 mg/kg, iv administered once per 2 days for 7 days measured 24 hrs after last dose by H and E staining method", "type": "organism-based", "settings": "168 h, time 7 day"}, "A-375 [3]": {"tested_on": "A-375", "assay": "Induction of cell cycle arrest in human A-375 cells assessed as accumulation of cells at S phase at 40 nM incubated for 24 hrs by PI based flow cytometric analysis (RVB = 26.73%)", "type": "functional"}}}
{"smiles": "O=C1c2c[n+]([O-])c3ccccc3c2C(=O)c2c1c1ccccc1n2Cc1cn([C@@H]2C[C@H](O)[C@@H](CO)O2)nn1", "values": [{"measurement": "Activity", "setting": "Calf thymus DNA", "result": 44, "unit": "%"}, {"measurement": "Activity", "setting": "A-375 [1]", "result": 38.36, "unit": "%"}, {"measurement": "Activity", "setting": "[2]", "result": "Non-Toxic"}, {"measurement": "Activity", "setting": "A-375 [3]", "result": 43.2, "unit": "%"}]}
